Test results as given in article PMC5400251, “Effect of quinoline based 1,2,3-triazole and its structural analogues on growth and virulence attributes of Candida albicans” (PLoS ONE, 2017).

Key:
[1] = test system: phospholipase secretion; experiment: Phospholipase assay (egg yolk agar, Pz value); format: cell-based, C. albicans D27 (FLC-susceptible)
Description: (§1) Phospholipase activity was performed using the method of Price et al. (1982) with minor modifications. The cells were incubated at 37°C for 18 h and then centrifuged at 3000 rpm for 5 min. The pellet obtained was washed with PBS twice to remove the residual culture medium. […] Volumes of 1 μL were placed at equidistant points on phospholipase agar media plates (1% peptone; 3% glucose; 5.73% NaCl; 0.055% CaCl2 with 10% (v/v) egg yolk emulsion) and incubated at 37°C for 4 days. The secretion of phospholipases was determined by the formation of opaque zones due to precipitation around the yeast colonies. The assay was conducted in duplicate. Pz values were calculated as follows: Pzvalue=diameterofcolony/diameterofcolony+diameterofzoneofprecipitaion

[2] = target: T1, plasma membrane H+ ATPase (Candida albicans, UniProt P28877); experiment: Measurement of intracellular pH (pHi); format: cell-based, C. albicans ATCC 90028; details: 100 μg/mL; untreated 6.3
T1 construct: endogenous in cells; host or cells: C. albicans ATCC 90028; clinical isolates C. albicans D27 (FLC-susceptible) and D15.9 (FLC-resistant); mid-log phase whole cells
T1 sequence (P28877 whole entry): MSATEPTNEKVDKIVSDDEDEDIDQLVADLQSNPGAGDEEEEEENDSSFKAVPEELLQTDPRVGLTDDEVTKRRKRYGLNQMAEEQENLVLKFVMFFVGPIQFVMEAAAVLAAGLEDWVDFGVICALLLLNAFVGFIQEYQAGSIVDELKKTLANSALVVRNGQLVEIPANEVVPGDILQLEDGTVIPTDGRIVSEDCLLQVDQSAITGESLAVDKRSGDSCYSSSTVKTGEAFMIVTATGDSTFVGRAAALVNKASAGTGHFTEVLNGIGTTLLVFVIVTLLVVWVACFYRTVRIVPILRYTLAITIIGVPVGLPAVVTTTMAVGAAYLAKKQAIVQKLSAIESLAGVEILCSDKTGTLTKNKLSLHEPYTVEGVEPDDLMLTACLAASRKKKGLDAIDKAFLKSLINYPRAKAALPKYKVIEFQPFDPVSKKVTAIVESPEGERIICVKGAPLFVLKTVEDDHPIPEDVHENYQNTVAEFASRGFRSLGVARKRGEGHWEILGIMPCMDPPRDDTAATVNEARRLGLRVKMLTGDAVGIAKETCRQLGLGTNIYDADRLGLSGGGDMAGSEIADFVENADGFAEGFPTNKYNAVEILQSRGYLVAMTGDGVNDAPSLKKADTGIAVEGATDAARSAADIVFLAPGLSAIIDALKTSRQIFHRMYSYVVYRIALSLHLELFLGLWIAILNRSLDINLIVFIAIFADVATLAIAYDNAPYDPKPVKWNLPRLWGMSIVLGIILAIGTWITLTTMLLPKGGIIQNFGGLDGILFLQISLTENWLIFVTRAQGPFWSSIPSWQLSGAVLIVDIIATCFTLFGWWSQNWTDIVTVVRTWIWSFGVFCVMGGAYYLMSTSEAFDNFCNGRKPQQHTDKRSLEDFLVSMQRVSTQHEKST
Description: (§2) In yeast cells, plasma membrane H^+-ATPase helps to maintain internal pH between 6.0 and 7.5. Intracellular pH (pHi) was measured as reported earlier by Manzoor et al.. Mid-log phase cells were harvested from SD medium and washed thrice with PBS. Subsequently, cells (0.1 g) were suspended in 5 mL solution of 0.1 M KCl, and 0.1 mM CaCl2 in distilled water. Compounds 3a and 3b were added to the suspension at a desired concentration of 100 μg/mL. […] Initial pH of the suspension was adjusted to 7.0 in each case and incubated for 30 min at 37°C with constant stirring. After incubation, the pH of suspension was again adjusted to 7.0 followed by the addition of nystatin (20 μM) and incubation at 37°C for 1 h. The change in pH of the suspension was monitored on a pH meter with constant stirring. The value of external pH at which nystatin permeabilization induced no further shift was taken as an estimate of pHi.

[3] = test system: C. albicans ATCC 90028, C. albicans D27 (FLC-susceptible) and C. albicans D15.9 (FLC-resistant); experiment: Time kill curve study, three strains; format: cell-based; details: for Fungicidal or fungistatic nature: time kill curves, at 2MIC
Description: Time-kill curves were used for testing the fungicidal or fungistatic nature of the lead inhibitors 3a and 3b. The experimental procedure was performed according to the method reported by Wang et al.. C. albicans ATCC 90028, C. albicans D27 (FLC-susceptible) and C. albicans D15.9 (FLC-resistant) strains were used as test organisms. Fluconazole was used as a positive control. Freshly prepared sterile YEPD medium was inoculated by fresh culture (approx. 2×10^3 cells) of test organisms in different conical flasks. The cells were exposed to the test compounds at 2MIC, MIC and MIC/2 values, separately. All the conical flasks having different sets of test compounds and concentrations were incubated at 37°C and 160 rpm. At predetermined time points (0, 4, 12, 24, and 48 h after incubation with agitation at 37°C), a 100-μL aliquot was removed from every solution and appropriately diluted in sterile water. A 100-μl aliquot from each dilution was spread over the YEPD agar plate. Colony counts were determined after incubation at 37°C for 24 h. All the time-kill curve experiments were conducted in duplicate and mean colony count data (log10 CFU/mL) were plotted as a function of time for each strain.

[4] = target: T1, plasma membrane H+ ATPase; experiment: Measurement of intracellular pH (pHi); format: cell-based, C. albicans D15.9 (FLC-resistant); details: 100 μg/mL; untreated 6.4
Description: as §2

[5] = target: T1, plasma membrane H+ ATPase; experiment: cell-based; design: species or system C. albicans D15.9 (FLC-resistant); details: for inhibition at 100 µg/mL: read-out: Inhibition of H+ extrusion
Description: The proton pumping activity of C. albicans was determined by monitoring acidification of external medium by measuring pH as describe earlier. In brief, the mid-log phase cells were harvested from SD medium by centrifugation at 3000 rpm for 15 min which is followed by three washings with phosphate buffer saline (PBS). A solution containing 0.1 M KCl and 0.1 mM CaCl2 in distilled water was prepared. Compounds 3a and 3b at the concentrations of 50 and 100 μg/mL were separately added in this solution. […] Initial pH was adjusted to 7.0 using 0.01 M HCl/NaOH. Approximately 0.2 g of cells were suspended in each set of solution. Suspension was kept in a double-jacketed glass container with constant stirring. Again, the pH of suspension was maintained as 7.0 for 1 min by using 0.01 N NaOH. The rate of H^+ extrusion was then monitored and calculated from the volume of 0.01 N NaOH consumed per min per mg weight of cells. Glucose has been reported as the stimulator of proton extrusion pump. Therefore above experiment was also repeated in the presence of 5 mM of glucose.

[6] = test system: proteinase secretion; experiment: Proteinase assay (BSA agar, Pz value); format: cell-based, C. albicans D27 (FLC-susceptible); details: at MIC, 1 h exposure
Description: Following incubation, 1.5 mL of the yeast culture was taken into micro centrifuge tubes and centrifuged at 3000 rpm, for 5 min. The pellet obtained was washed by phosphate buffer saline (PBS) twice to remove the residual medium. […] Volumes of 1μL were placed at equidistant points on proteinase agar medium (0.1% yeast nitrogen base w/o amino acids; 0.145% ammonium sulfate; 2% glucose with 0.2% (w/v) BSA fraction V mixed into agar at ∼40°C) and incubated at 37°C for 3 days. The experiment was performed in duplicate. Secreted proteinase enzyme will degrade BSA and form zone of clearance around the yeast colonies. An index (Pz value) was used to represent the extent of proteinase activity by different strains of C. albicans. A Pz value of 1.0 depicts no enzyme activity. It was calculated as follows: Pzvalue=diameterofcolony/diameterofcolony+diameterofzoneofdegradation

[7] = test system: phospholipase secretion; experiment: Phospholipase assay (egg yolk agar, Pz value); format: cell-based, C. albicans ATCC 90028
Description: as §1

[8] = test system: ergosterol biosynthesis; experiment: Ergosterol estimation assay
[9] = 50 μg/mL in presence of glucose (5 mM)
[10] = 100 μg/mL in presence of glucose (5 mM)

| Compound | Decrease of phospholipase secretion ([1]; at MIC, 1 h exposure) [%] | Decrease of phospholipase secretion ([1]; at MIC/4, 1 h exposure) [%] | Intracellular pH (pHi) [2] | Fungicidal or fungistatic nature [3] | Intracellular pH (pHi) [4] | Range of relative H+ efflux rate [5, 9] | Range of relative H+ efflux rate ([5]; 50 μg/mL, no glucose) | Range of relative H+ efflux rate [5, 10] | Range of relative H+ efflux rate ([5]; 100 μg/mL, no glucose) | inhibition at 100 µg/mL [5] [%] | Decrease of proteinase secretion [6] [%] | Decrease of phospholipase secretion ([7]; at MIC, 1 h exposure) [%] | Decrease of phospholipase secretion ([7]; at MIC/4, 1 h exposure) [%] | Mean decrease in total ergosterol content ([8]; at MIC/4, 16 h) [%] | further results |
| --- | --- | --- | --- | --- | --- | --- | --- | --- | --- | --- | --- | --- | --- | --- | --- |
| c1ccc(Cn2cc(COc3cccc4cccnc34)nn2)cc1 [Compound 3a] | 42 | 25 | 5.2 | fungicidal | 5.4 | 28.30 ± 1.4 ×10^−6 mol min^−1 mg cells^−1 | 21.60 ± 1.0 ×10^−6 mol min^−1 mg cells^−1 | 20.00 ± 1.0 ×10^−6 mol min^−1 mg cells^−1 | 16.70 ± 0.8 ×10^−6 mol min^−1 mg cells^−1 | 40 | 30 | 43 | 40 | 30 | Change in CFU/mL ([3]; 2MIC, after 48 h, all three test strains): significant decrease in CFU/mL; Mean decrease in total ergosterol content ([8]; above MIC/2, 16 h): 100% |
| Clc1ccc(OCc2cn(Cc3ccccc3)nn2)c2ncccc12 [Compound 3b, 8-((1-Benzyl-1H-1,2,3-triazol-4-yl)methoxy)-5-chloroquinoline] | 46 | 34 | 4.7 | fungistatic | 4.7 | 25.00 ± 1.2 ×10^−6 mol min^−1 mg cells^−1 | 18.30 ± 0.9 ×10^−6 mol min^−1 mg cells^−1 | 21.00 ± 1.0 ×10^−6 mol min^−1 mg cells^−1 | 16.00 ± 0.8 ×10^−6 mol min^−1 mg cells^−1 | 42 | 22 | 68 | 32 | 23 | Change in CFU/mL with time interval ([3]; dose dependent): only slight increase in CFU/mL; melting point: 148 to 149 °C; Phospholipase activity after treatment ([7]; Fig 4 legend): No phospholipase activity; Decrease in total ergosterol content ([8]; at MIC, 16 h): 100%; Decrease in total ergosterol content ([8]; at MIC/2, 16 h): 98% |
